“And” between values parts separate entries of the source, which are not always exact repeats. Identical values can stand only once. Like-named read-outs stand apart in the source and are kept apart here.
What was measured:
Assay type in all cases: cell-based
[1] = test system: Glioma SNB19VR (MGMT−) (TMZ resistant); test: MTT assay for 7-day toxicity assay
[2] = test system: Glioma U373VR (MGMT low) (TMZ resistant); test: MTT assay for 7-day toxicity assay
[3] = test system: Melanoma SKMEL-28 (MMR proficient); test: MTT assay for 7-day toxicity assay
Procedure, shortened: (§1)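 Cells seeded at 400 cells/well, attached overnight, then exposed to compound at 0.5–1000 μM final for 7 days at 37 °C, 5% CO2. Viability read by MTT, with a day-0 plate fixed at drug addition as reference.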

[4] = test system: Colon HT29 (MMR proficient); test: MTT assay for 7-day toxicity assay
Procedure, shortened: as §1

[5] = test system: range of other cell lines (e.g., colon, melanoma); test: MTT assay, other cell lines; conditions: for activity in words: other lines (e.g., colon, melanoma)
Source text: This assay was first described in Mosmann, T., 1983, “Rapid colorimetric assay for cellular growth and survival: Application to proliferation and cytotoxicity assays”, Journal of Immunological Methods, Vol. 65, Nos. 1-2, pp. 55-63.
Glioma cell lines, SNB19 and U373, both MGMT transfected (i.e., SNB19M and U373M) and vector controls (i.e., SNB19V and U373V); colorectal carcinoma cell lines, HCT116, HT29, and DLD1; melanoma cell line, SKMEL-28; breast cell line, MCF-7; and normal human fetal lung fibroblast cell line, MRC-5; were harvested at 60-80% confluence—during the logarithmic phase of growth.
Following harvesting, cells in suspension were gently syringed through a 23 gauge needle to obtain a near-single cell suspension. The desired cell seeding densities were used and added into 96-well plates in 180 μL culture medium if only one test compound was to be added, or 160 μL if two test compounds were to be added in combination, which were allowed to attach at 37° C. (5% CO2) overnight. For the 7 day assay, the cell seeding density for different cell lines was as follows: SNB19V, SNB19M: 650 cells/well; U373V, U373M: 650 cells/well; SNB19VR, U373VR: 650 cells/well; HCT116, DLD-1, SKMEL-28, MRC-5, MCF-7: 400 cells/well.
The two peripheral lanes were used as blank wells (cell free) and filled with 200 μL of medium in order to minimise medium evaporation from the plate. A separate time zero (T0) plate was set up alongside other plates. Serial dilutions in tissue culture medium of a 100 mM stock of test compound in DMSO were prepared immediately before each assay to ten times the final concentrations required, and then 20 μL was added to each well (200 μL total media per well) to achieve final concentrations of 0.5 μM, 1 μM, 5 μM, 10 μM, 50 μM, 100 μM, 500 μM, and 1000 μM. A minimum of four wells received the same test compound concentration. To control wells, including those in the T0 plate, 20 μL of medium was added. Previous assays had been carried out to verify that cell viability was not affected by the amount of DMSO added into the test compound-treated wells. A separate plate treated in the same way, but free of test compound, was used as a measure of cell viability at the time of drug addition (day 0).
After incubation at 37° C., 5% CO2 for 7 days (or immediately for the day 0 plate), cell viability was quantified using the MTT assay. 50 μL of sterile filtered MIT (3-(4,5-dimethylthiazol-2-yl)-2,5-diphenyltetrazolium bromide) (2 mg/mL in phosphate buffered saline) were added to each well (final concentration 0.4 mg/mL) and the plates were re-incubated for 4 hours to allow metabolic conversion of MTT by dehydrogenases in viable cells to insoluble formazan crystals. The medium and any unconverted MTT was aspirated, 150 μL of DMSO was added to each well, and the plates were shaken on a plate shaker (Stuart Scientific 503) to ensure complete formazan solubilisation.
The intensity of absorbance is directly proportional to cell viability. A linear relationship exists between cell number and the amount of formazan and so the mean absorbance determined for each well of the same concentration can be used as a quantitative measure of viable cells compared to the controls. A graph of absorbance against drug concentration was plotted and the test compound concentration (GI50) causing 50% inhibition of control cell growth (absorbance increase from day 0) was calculated by interpolation.

[6] = 168 h, Glioma SNB19VR (MGMT−, TMZ resistant), 7-day MTT, single determinations, read-out: GI50
[7] = 168 h, Glioma U373VR (MGMT low, TMZ resistant), 7-day MTT, single determinations, read-out: GI50
[8] = Homo sapiens, SK-MEL-28, 168 h, Melanoma SKMEL-28 (MMR proficient), 7-day MTT, single determinations, read-out: GI50
[9] = Homo sapiens, HT-29, 168 h, Colon HT29 (MMR proficient), 7-day MTT, single determinations, read-out: GI50
[10] = Glioma SNB19VR (MGMT−, TMZ resistant), 7-day MTT, single determinations, read-out: GI50
[11] = Melanoma SKMEL-28 (MMR proficient), 7-day MTT, single determinations, read-out: GI50
[12] = Glioma U373VR (MGMT low, TMZ resistant), 7-day MTT, single determinations, read-out: GI50
[13] = Glioma SNB19VR (MGMT−) (TMZ resistant), read-out: GI50
[14] = Homo sapiens, SK-MEL-28, Melanoma SKMEL-28 (MMR proficient), read-out: GI50
[15] = Melanoma SKMEL-28 (MMR proficient), read-out: GI50
[16] = Colon HT29 (MMR proficient), read-out: GI50
[17] = Homo sapiens, HT-29, Colon HT29 (MMR proficient), read-out: GI50
[18] = Glioma U373VR (MGMT low) (TMZ resistant), read-out: GI50

C[C@H](c1ccccc1)n1nnc2c(C(N)=O)ncn2c1=O [BB-001, (R)-3-(-1-Phenylethyl)-8-carbamoylimidazotetrazin-4-one]
GI50 [1, 6]: 46.6 µM | GI50 [2, 7]: 63.7 µM

C#CCn1nnc2c(C(N)=O)ncn2c1=O [EE-001, 3-Propargyl-8-carbamoylimidazotetrazin-4-one]
GI50 [1, 6]: 54.9 µM | GI50 [3, 8]: 48.5 µM | GI50 [2, 7]: 40.3 µM | GI50 [4, 9]: 21.1 µM | activity in words [5]: more potent than TMZ

CCOC(=O)Cn1nnc2c(C(N)=O)ncn2c1=O [PX-016]
GI50 [1, 6]: 37.6 µM | GI50 [1, 10]: 62 µM | GI50 [3, 8]: 92.8 µM | GI50 [3, 11]: 91.3 µM | GI50 [2, 7]: 57.5 µM | GI50 [2, 12]: 71.1 µM

COCn1nnc2c(C(N)=O)ncn2c1=O [PX-020]
GI50 [1, 13]: 25.8 µM and 28.9 µM and 27.8 µM and 29.2 µM and 16.8 µM | GI50 [3, 14]: 56.1 µM | GI50 [3, 15]: 55.1 µM | GI50 [4, 16]: 49.8 µM | GI50 [4, 17]: 59.4 µM

C[Si](C)(C)CCOCn1nnc2c(C(N)=O)ncn2c1=O [PX-021]
GI50 [3, 14]: 47.1 µM | GI50 [3, 15]: 56.8 µM | GI50 [4, 16]: 55.8 µM | GI50 [4, 17]: 58.5 µM

NC(=O)c1ncn2c(=O)n(CCl)nnc12 [PX-030]
GI50 [2, 18]: 28.9 µM and 34.5 µM

Cn1nnc2c(C(N)=O)ncn2c1=O [TMZ, 3-Methyl-4-oxo-3,4-dihydro-imidazo[5,1-d][1,2,3,5]tetrazine-8-carboxylic acid amide, reference compound]
GI50 [1, 6]: 314 µM | GI50 [1, 13]: 280 µM | GI50 [1, 10]: 251 µM and 275 µM and 282 µM (2×) and 294 µM and 263 µM | GI50 ([1]; Glioma SNB19VR (MGMT−, TMZ resistant), average of Table 1, read-out: TMZ GI50 Average): 280 µM | GI50 [3, 8]: 419 µM | GI50 ([3]; Homo sapiens, SK-MEL-28, Melanoma SKMEL-28 (MMR proficient), average of Table 1, read-out: TMZ GI50 Average): 431 µM | GI50 [3, 14]: 431 µM | GI50 [3, 11]: 443 µM | GI50 [2, 7]: 316 µM | GI50 [2, 18]: 289 µM | GI50 [2, 12]: 293 µM and 234 µM and 328 µM and 299 µM and 258 µM and 326 µM and 257 µM | GI50 ([2]; Glioma U373VR (MGMT low, TMZ resistant), average of Table 1, read-out: TMZ GI50 Average): 289 µM | GI50 ([4]; Colon HT29 (MMR proficient), 7-day MTT, single determinations, read-out: GI50): 578 µM | GI50 [4, 9]: 702 µM | GI50 ([4]; Homo sapiens, HT-29, Colon HT29 (MMR proficient), average of Table 1, read-out: TMZ GI50 Average): 640 µM | GI50 [4, 17]: 640 µM | GI50 ([5]; range of other cell lines (Table 1)): 200 to 700 µM

C[S+]([O-])Cn1nnc2c(C(N)=O)ncn2c1=O (centres unmarked) [UU-003, 3-Methanesulfinylmethyl-4-oxo-3,4-dihydro-imidazo[5,1-d][1,2,3,5]tetrazine-8-carboxylic acid amide]
activity in words [5]: surprising efficacy
